Experiment: gradient 5% acetonitrile 3 min, to 50% in 2 min, to 85% in 15 min, held 3 min, 100 µL/min
Conditions: column: Zorbax Extend-C18 2.1 x 50 mm; eluents: water / acetonitrile, 0.1% formic acid
In short: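 Retention time was recorded from adduct peaks, which were picked computationally and each inspected manually. Pure standards ran in mixtures of ~100 molecules on HPLC coupled to a quadrupole time-of-flight mass spectrometer, in positive and negative ionization mode, through a Zorbax Extend-C18 column (2.1 × 50 mm, 1.8 μm) at 100 μL/min. Eluents were water and acetonitrile, each with 0.1% formic acid.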

Row | RP-LC retention time [s] | Compound
1 | 1310 | COc1ccc(-c2noc(Cc3nc(-c4ccc(C)c(C)c4)cs3)n2)cc1
2 | 634 | CCOC(=O)N1CCN(c2cc(C(=O)O)c3cc(NC(=O)Cc4ccc(OC)cc4)ccc3n2)CC1
3 | 704 | O=C(c1cccs1)N1CCCC1c1nc(-c2ccccc2)n[nH]1 (stereo unspecified)
4 | 813 | Cc1c(Cl)cccc1NC1=NS(=O)(=O)c2ccccc21
5 | 853 | CC1CCc2nc(NC(=O)CCS(=O)(=O)Cc3ccccc3)sc2C1 (stereo unspecified)
6 | 936 | CCc1csc(-c2ccc(N3CCN(C(=O)c4ccc(OC)c(F)c4)CC3)nc2)n1
7 | 767 | CS(=O)(=O)N1CCC(C(=O)NCc2cccc(Oc3ccc(F)cc3)c2)CC1
8 | 595 | CC(C)n1cnc2cc(CNC(=O)C3CCCC3)ccc21
9 | 1010 | O=c1ccc(-c2ccc3c(c2)OCO3)nn1CCc1nc(-c2cccc(Cl)c2)no1
10 | 976 | O=C(NCCCc1ccccc1)C1CCN(c2ncnc3c2oc2ccccc23)CC1
11 | 934 | CN1CCCc2cc(C(=O)NC3CCCCC3)sc21
12 | 655 | COCCC1CCN(C(=O)CN(C)C(=O)c2ccsc2)CC1
13 | 869 | Cc1noc(C)c1-c1ccc(S(=O)(=O)NCc2cccs2)cc1
14 | 1000 | CCCn1cc(C(=O)NCCCOC)c(S(=O)(=O)N2CCN(c3ccc(Cl)cc3)CC2)n1
15 | 913 | CCOC(=O)c1c(S(=O)(=O)N2CCC(C(=O)N3CCc4ccccc43)CC2)c(C)n(C)c1C
16 | 1170 | CCN1C(=O)C2(CCN(S(=O)(=O)c3ccc4c(c3)CCC4)CC2)c2ccccc21
17 | 747 | O=C(c1ccc(F)cc1)N(CC1CCOC1)C1CC1 (stereo unspecified)
18 | 1220 | O=C(Nc1nc(-c2ccccc2)cs1)c1ccc(COc2c(F)c(F)c(F)c(F)c2F)o1
19 | 958 | Cc1nn(C)c2nc(OCC(=O)N3CCCCCC3)cc(C(F)(F)F)c12
20 | 880 | COc1ccc(CC(=O)N2CCC[C@@H]2C(=O)NCc2csc(-c3ccccc3)n2)c(Cl)c1
21 | 716 | CC1=C(c2ccc(F)cc2)S(=O)(=O)N=C1N1CCC(NC(=O)C2CCCO2)CC1 (stereo unspecified)
22 | 1270 | CCc1ccc(-n2ncc3c(=O)n(Cc4nc(-c5ccc(Cl)cc5)no4)cnc32)cc1
23 | 621 | CC(C)NC(=O)C(=O)NCc1n[nH]c(=O)c2ccccc12

Row | RP-LC retention time [s] | Compound
24 | 836 | CCn1c(=O)n(CC)c2cc(S(=O)(=O)c3ccc(OC)cc3)c(NC(=O)C(C)C)cc21
25 | 659 | O=C(NC1CCN(Cc2ccccc2)CC1)C1CCCN(c2nnc(-n3cccc3)s2)C1 (stereo unspecified)
26 | 649 | Cc1nnsc1C(=O)NCC(F)(F)F
27 | 663 | COCCN1C(=O)c2cccn2CC1CNC(=O)Nc1ccc2c(c1)OCCO2 (stereo unspecified)
28 | 1060 | O=C(c1ccc(F)cc1F)N1CCc2nc(-c3ccc(Cl)cc3)ncc2C1
29 | 809 | COC(=O)c1c(C)[nH]c(C(=O)N2CCCC(C(=O)NCc3ccc(Cl)cc3)C2)c1C (stereo unspecified)
30 | 560 | CCN(Cc1ccncc1)C1CN(C(=O)c2ccc3ncccc3c2)C1
31 | 814 | Cc1c(C(=O)Nc2c3c(nn2C(C)(C)C)CSC3)cccc1[N+](=O)[O-]
32 | 644 | COc1cccc(CNc2nc3ccncc3n(C(C)C)c2=O)c1OC
33 | 683 | O=C(CCc1c(-c2ccccc2)nc2ccccn12)Nc1ccccc1Br
34 | 652 | O=C(CSc1ccc(NC(=O)C2CC2)nn1)NCc1cccs1
35 | 845 | CCOc1ccc(NC(=O)Cn2c(=O)nc(N3CCCC(C)C3)c3ccccc32)cc1 (stereo unspecified)
36 | 593 | Cn1cnc(S(=O)(=O)N2CCC3(CC2)N(c2ccccc2)C(=O)CS3=O)c1 (stereo unspecified)
37 | 676 | COC1CCOC2(CCN(C(=O)c3ccsc3)CC2)C1 (stereo unspecified)
38 | 756 | Cc1ccc(-n2nnnc2CN2CCN(S(=O)(=O)N(C)C)CC2)cc1
39 | 606 | CCn1ccc(C(=O)N2CCC(c3nc4cccnc4n3CCOC)C2)n1 (stereo unspecified)
40 | 724 | COC[C@@H]1OCCN(Cc2ccc(C)c(C)c2)[C@H]1c1ccccc1
41 | 616 | CCCn1nc2n(c1=O)CCN(Cc1cn[nH]c1-c1cc(OC)ccc1OC)C2
42 | 993 | O=C(Cn1cnc2c(sc3nc(-c4ccccc4)ccc32)c1=O)Nc1ccccc1F
43 | 942 | COc1cccc(CNC(=O)C2(C)CCCN(C(=O)Nc3ccccc3Br)C2)c1 (stereo unspecified)
44 | 1030 | O=C(Cn1cccc1-c1nc(-c2ccc(Cl)cc2)cs1)NCC1CCCO1 (stereo unspecified)
45 | 887 | O=C(c1cccs1)N1CCc2cc(-c3ccno3)ccc21
46 | 873 | COCCOc1ccc2c(n1)CCN(C(=O)Nc1cc(C)ccc1C)C2

Row | RP-LC retention time [s] | Compound
47 | 876 | CC(C)Cn1ccc2c(cc(C(=O)Nc3cc(F)ccc3F)n2C)c1=O
48 | 607 | O=C(NC1CC1)C1CCN(c2cncnc2N2CCCCC2)CC1
49 | 981 | CN1C(=O)C2CCCCN2c2ccc(C(=O)NCCN3CCCC3)cc21 (stereo unspecified)
50 | 1110 | COC(=O)c1sc(-c2ccccc2)cc1NC(=O)c1ccccc1[N+](=O)[O-]
51 | 893 | Cc1ccc(N2CCC(NC(=O)Cc3ccccc3C)C2=O)cc1C (stereo unspecified)
52 | 641 | CC1CCCCN1CCNC(=O)CCCn1c(=O)c2cccn2c2ccc(F)cc21 (stereo unspecified)
53 | 874 | COc1cc2c(cc1CNC(=O)COc1ccc(F)cc1)OCCCO2
54 | 1200 | CCOC(=O)C(CC)n1nc2nc(Nc3ccc(C)c(F)c3)cc(C)n2c1=O (stereo unspecified)
55 | 622 | O=C1OC2CC1N(C(=O)C1CC=CCC1)C2 (stereo unspecified)
56 | 732 | Cc1ccc(S(=O)(=O)N(C)c2ccc(OCC(=O)N3CCOCC3)cc2)cc1
57 | 646 | Cc1ccc2[nH]c(=O)c(CCC(=O)N(C)Cc3cn(C)nc3C)cc2c1
58 | 1230 | CCCCn1c(=O)c2ccccc2n(Cc2nc(-c3cccc(C)c3)no2)c1=O
59 | 845 | CCc1ccccc1NC(=O)Cc1csc2nc(-c3ccccc3)cn12
60 | 871 | COC(=O)c1sc2ccccc2c1NC(=O)c1ccc([N+](=O)[O-])o1
61 | 655 | Cc1ccccc1Cc1c(C)nc2nc(SCC(=O)NCCN3CCOCC3)nn2c1C
62 | 824 | O=C(c1cc(S(=O)(=O)N2CCCC(C(=O)N3CCCCCC3)C2)c[nH]1)N1CCCCCC1 (stereo unspecified)
63 | 744 | CN(C)c1ccc(CNC(=O)C2CCCN(c3nccnc3Sc3ccccc3)C2)cc1 (stereo unspecified)
64 | 638 | CCNC(=O)CCc1cc2cc(C)ccc2[nH]c1=O
65 | 784 | CSc1ccc(-c2nc3cnccn3c2Nc2cccc(C(=O)NC(C)C)c2)cc1
66 | 1020 | COc1ccccc1NC(=O)Cn1cccc1-c1nnc(-c2ccccc2)o1
67 | 965 | CCS(=O)(=O)N1CCC2(CC1)C(OC)CN2c1cccc(F)c1 (stereo unspecified)
68 | 600 | CCn1c(N2CCC(C(=O)N3CCC(N4CCCCC4)CC3)CC2)cc(=O)n(C)c1=O
69 | 597 | CN(C)C(=O)c1ccc2c(c1)nc(CN1CCN(C(=O)c3ccc(C#N)cc3)CC1)n2C

Row | RP-LC retention time [s] | Compound
70 | 599 | COc1ccc(NC(=O)N2CCN(C3=CC4=NCC(C)N4C=N3)CC2)cc1 (stereo unspecified)
71 | 694 | O=S(=O)(Nc1ccc(F)c(F)c1)c1ccc2nncn2c1
72 | 759 | COC(=O)c1ccccc1NC(=O)c1cnc2sc(C)cn2c1=O
73 | 847 | O=C(CCCCn1c(=O)c2ccccc2n(Cc2ccccc2)c1=O)NCc1cccs1
74 | 715 | CC1(C(=O)Nc2ccc(F)c(F)c2)CCCCC(=O)N1 (stereo unspecified)
75 | 940 | Cc1cnn(Cc2nc(-c3ccc(NC(=O)c4ccc(C)s4)cc3)oc2C)c1
76 | 935 | COc1ccc(CNC(=O)C2(C)CCCN(S(=O)(=O)c3cccc(C)c3)C2)cc1 (stereo unspecified)
77 | 676 | Cc1ccc(-c2nnc(-c3nc(N4CCN(c5ccccn5)CC4)c4ccccc4n3)o2)cc1
78 | 775 | c1cc2nnc(C3CC3)n2nc1N1CCCC1
79 | 634 | Cc1ccn2cc(-c3ccc(NC(=O)c4ccccc4F)cc3)nc2n1
80 | 859 | O=C1NC2(CCN(C(=O)c3ccc4ccccc4c3)CC2)N=C1c1ccccc1
81 | 1090 | CCn1cc(-c2nc(C)c(C(=O)NCc3ccccc3F)s2)c2cccnc21
82 | 1190 | Cc1sc(-c2nc(C(C)C)cs2)cc1S(=O)(=O)NCc1ccccc1
83 | 1260 | Cc1ccccc1NS(=O)(=O)c1cc(-c2nc(C(C)(C)C)cs2)cs1
84 | 719 | CC(C)c1nc(-n2cccc2)sc1C(=O)NCCCN1CCCCC1
85 | 669 | NS(=O)(=O)c1ccc(CCNC(=O)Cc2cc(-c3cccs3)on2)cc1
86 | 968 | COc1cccc(NC(=O)N2CCOc3ccc(C)cc32)c1
87 | 958 | O=C(Nc1ccc(OCc2nnc(-c3ccc(Cl)cc3)o2)cc1)c1ccsc1
88 | 605 | O=C(NCCN1CCOCC1)c1ccc(-c2c(-c3ccc(F)cc3)ncn2C2CCCCC2)o1
89 | 1020 | CCCC(=O)N1CCN(c2nc3ccccc3nc2C(F)(F)F)CC1
90 | 897 | O=C(Cn1cccc1-c1nnc(C2CCC2)o1)Nc1ccc(F)cc1
91 | 703 | CNC(=O)N1CCCN(C2=NS(=O)(=O)C(c3ccc(Cl)cc3)=C2C)CC1

Reference: the METLIN SMRT retention time set (Domingo-Almenara et al. 2019)
